The text below walks through data of patent publication US20260008770A1, “CBL-B INHIBITORS AND METHODS OF USES THEREOF” (Insilico Medicine IP Limited, priority 2022, published 2026).

Structures are written as SMILES. pIC50: −log10 of the molar value.

In the first experiment the target is Cbl-b protein (CBL-B, GST-Tag) (Homo sapiens (Human), UniProt Q13191). In words: HTRF based binding assay, affinity to Cbl-b protein.
Chain of Cbl-b protein (CBL-B, GST-Tag) (Q13191 whole entry): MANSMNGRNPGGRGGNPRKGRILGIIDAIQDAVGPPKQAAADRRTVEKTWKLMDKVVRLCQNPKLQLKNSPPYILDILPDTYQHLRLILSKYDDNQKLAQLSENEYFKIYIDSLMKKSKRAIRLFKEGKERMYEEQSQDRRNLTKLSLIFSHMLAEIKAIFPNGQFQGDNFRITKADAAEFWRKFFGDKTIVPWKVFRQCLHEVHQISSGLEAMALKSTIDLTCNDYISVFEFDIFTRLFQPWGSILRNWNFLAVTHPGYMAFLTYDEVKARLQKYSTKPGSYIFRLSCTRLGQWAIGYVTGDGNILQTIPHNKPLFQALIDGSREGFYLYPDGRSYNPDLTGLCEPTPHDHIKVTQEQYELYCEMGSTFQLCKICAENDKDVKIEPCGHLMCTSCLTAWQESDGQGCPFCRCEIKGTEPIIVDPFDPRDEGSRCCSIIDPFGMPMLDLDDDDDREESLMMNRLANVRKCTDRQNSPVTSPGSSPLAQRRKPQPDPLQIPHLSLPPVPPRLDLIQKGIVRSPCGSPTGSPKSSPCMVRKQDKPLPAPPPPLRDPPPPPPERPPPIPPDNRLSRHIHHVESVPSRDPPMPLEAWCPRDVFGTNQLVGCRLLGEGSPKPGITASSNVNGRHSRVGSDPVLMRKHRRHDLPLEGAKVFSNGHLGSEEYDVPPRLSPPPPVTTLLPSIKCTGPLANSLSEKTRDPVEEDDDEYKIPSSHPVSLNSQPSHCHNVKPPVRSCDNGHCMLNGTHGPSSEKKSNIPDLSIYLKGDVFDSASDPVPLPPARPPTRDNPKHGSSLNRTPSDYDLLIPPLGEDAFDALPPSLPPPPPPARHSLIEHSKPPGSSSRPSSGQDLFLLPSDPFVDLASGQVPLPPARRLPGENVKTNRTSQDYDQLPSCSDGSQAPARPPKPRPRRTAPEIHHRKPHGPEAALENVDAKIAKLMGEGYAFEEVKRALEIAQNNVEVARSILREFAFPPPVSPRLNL
Conditions: not given
In general terms: Time-resolved FRET reads energy transfer from a long-lived donor to a nearby acceptor.
Regarding `CC1CC(c2cc(F)nc(-n3cnc4c(C(F)(F)F)cc(CN5CCC[C@H](C)C5)cc4c3=O)c2)(c2nncn2C)C1` (stereo partly shown) [Example 44], the pIC50 was 7.30 to 7.70.

`CC1CC(c2cccc(-n3nc(C(F)(F)F)c4ccc(CN5CCC[C@H](C)C5)cc4c3=O)c2)(c2nncn2C)C1` (stereo partly shown) [Example 9] had a pIC50 of 6.30 to 7.30. The same measure, in the same setting: the result for `C[C@H]1CCCN(Cc2cc(C(F)(F)F)c3cn(-c4cccc(C5(c6nncn6C)CC(=O)C5)c4)nc3c2)C1` [Example 68] reads 6.30 to 7.30. Take `CC1CC(c2cncc(-n3ncc4c(C(F)(F)F)cc(CN5CCC[C@H](C)C5)cc4c3=O)c2)(c2nncn2C)C1` (stereo partly shown) [Example 54]: the pIC50 is 6.30 to 7.30. The compound `CC1CC(c2cccc(-c3nc4cc(CN5CCO[C@H](C)C5)cc(C(F)(F)F)c4s3)c2)(c2nncn2C)C1` (stereo partly shown) [Example 11] showed a pIC50 of 6.30 to 7.30. With `COCC1CC(c2cccc(-n3cnc4c(C(F)(F)F)cc(CN5CCC[C@H](C)C5)cc4c3=O)c2)(c2nncn2C)C1` (stereo partly shown) [Example 76], the pIC50 is 6.30 to 7.30. The compound `CC1CC(c2cccc(-n3ncc4c(C(F)(F)F)cc(CN5CCC(F)(F)[C@H](C)C5)cc4c3=O)c2)(c2nncn2C)C1` (stereo partly shown) [Example 14] gave a pIC50 of 6.30 to 7.30.

For `CC1CN(Cc2cc(C(F)(F)F)c3ncn(-c4cc([C@]5(c6nncn6C)C[C@@H](C)C5)ccn4)c(=O)c3c2)CCC1(F)F` (stereo partly shown) [Example 34], the pIC50 is 7.30 to 7.70.

As for `CC1CC(c2ccc(F)c(-n3cc4c(C(F)(F)F)cc(CN5CCC[C@H](C)C5)cc4n3)c2)(c2nncn2C)C1` (stereo partly shown) [Example 72], the negative logarithm of the IC50 (pIC50) was 7.30 to 7.70. For the compound `CC1CC(c2cccc(-c3nc4cc(CN5CCC[C@H](C)C5)cc(C(F)(F)F)c4[nH]3)c2)(c2nncn2C)C1` (stereo partly shown) [Example 17], the pIC50 was 6.30 to 7.30. Compound `C[C@H]1CCCN(Cc2cc(C(F)(F)F)c3ncn(-c4cc(C5(Cc6nncn6C)COC5)ccn4)c(=O)c3c2)C1` [Example 35] showed a pIC50 of 6.30 to 7.30. Same read-out and setting: in the case of `CC1CC(c2cccc(-n3ncc4c(C(F)(F)F)cc(CN5CCC[C@H](C)C5)cc4c3=O)c2)(c2nncn2C)C1` (stereo partly shown) [Example 6] it was 7.30 to 7.70; in that of `C[C@H]1CCCN(Cc2cc(C(F)(F)F)c3cnn(-c4cccc(C5(c6nncn6C)CC(F)(F)C5)c4)c(=O)c3c2)C1` [Example 83], 6.30 to 7.30.

Turning to `C[C@H]1CCCN(Cc2cc(C(F)(F)F)c3cnn(-c4cc([C@]5(c6nncn6C)C[C@H](C)C5)ccn4)c(=O)c3c2)C1` [Example 65], the pIC50 is 6.00 to 6.30.

For `C#Cc1cc([C@]2(c3nncn3C)C[C@@H](C)C2)cc(-n2cnc3ccc(CN4CCC[C@H](C)C4)cc3c2=O)n1` [Example 97], the pIC50 is 6.30 to 7.30. `C#CC1CCCN(Cc2cc(C(F)(F)F)c3cnn(-c4cccc(C5(c6nncn6C)CC(C)C5)c4)c(=O)c3c2)C1` (stereo not shown) [Example 20] showed a pIC50 of 6.00 to 6.30.

Take `C[C@H]1CCCN(Cc2cc(C(F)(F)F)c3cn(-c4cc([C@]5(c6nncn6C)C[C@@H](C)C5)ccn4)nc3c2)C1` (single isomer, unassigned) [Example 58]: the pIC50 is 7.30 to 7.70. `Cn1cnnc1[C@]1(c2ccnc(-n3ncc4c(C(F)(F)F)cc(CN5CCOC6(CCC6)C5)cc4c3=O)c2)C[C@H](C)C1` [Example 39] gave a pIC50 of 6.00 to 6.30. The same measure, in the same setting: the result for `CC1CC(c2cccc(N3CCc4c(cc(CN5CC[C@H](F)C5)cc4C(F)(F)F)C3=O)c2)(c2nncn2C)C1` (stereo partly drawn) [Example 1, (S)-7-((3-fluoropyrrolidin-1-yl)methyl)-2-(3-(3-methyl-1-(4-methyl-4H-1,2,4-triazol-3-yl)cyclobutyl)phenyl)-5-(trifluoromethyl)-3,4-dihydroisoquinolin-1(2H)-one] reads 6.30 to 7.30.

Consider `CC1CC(c2cccc(-n3[nH]c(=O)c4c(C(F)(F)F)cc(CN5CCC[C@H](C)C5)cc4c3=O)c2)(c2nncn2C)C1` (stereo partly shown) [Example 81], for which the pIC50 is 6.30 to 7.30. `Cn1cnnc1[C@]1(c2ccnc(-n3ncc4c(C(F)(F)F)cc(CN5CCCC6(CC6)C5)cc4c3=O)c2)C[C@H](C)C1` [Example 37] had a pIC50 of 6.30 to 7.30. In turn, `C[C@H]1CCCN(Cc2cc(C(F)(F)F)c3cnn(-c4cc([C@]5(c6nncn6C)C[C@@H](C)C5)ccn4)c(=O)c3c2)C1` (single isomer, unassigned) [Example 55] gave a negative logarithm of the IC50 (pIC50) of 6.00 to 6.30. The same measure, in the same setting: in the case of `C#Cc1cc(-n2cc3c(C(F)(F)F)cc(CN4CCC[C@H](C)C4)cc3n2)cc(C2(c3nncn3C)CC(C)C2)c1` (stereo partly shown) [Example 51] it was 6.30 to 7.30.

Turning to `C#CCC1CC(c2cccc(-n3cc4c(C(F)(F)F)cc(CN5CCC[C@H](C)C5)cc4n3)c2)(c2nncn2C)C1` (stereo partly shown) [Example 66], the negative-log IC50 (pIC50) was 7.30 to 7.70.

Consider `C[C@H]1CCCN(Cc2cc(C(F)(F)F)c3ncn(-c4cccc(C5(c6nncn6C)CC(=O)C5)c4)c(=O)c3c2)C1` [Example 67], for which the pIC50 is 6.30 to 7.30. `C[C@H]1CCCN(Cc2cc(C(=O)Nc3cccc([C@H](c4nncn4C)C4COC4)c3)cc(C(F)(F)F)c2)C1` [Example 27] gave a pIC50 of 6.30 to 7.30. Consider `Cn1cnnc1[C@]1(c2cccc(-n3cc4c(C(F)(F)F)cc(CN5CCOC6(CCC6)C5)cc4n3)c2)C[C@H](C)C1` [Example 40], for which the pIC50 was 6.30 to 7.30.

`Cn1cnnc1[C@]1(c2cc(OCF)nc(-n3cnc4ccc(CN5CCC[C@H](F)C5)cc4c3=O)c2)C[C@H](C)C1` [Example 98]: the pIC50 is 6.30 to 7.30. Still for that read-out and setting: in the case of `CCc1cc([C@]2(c3nncn3C)C[C@@H](C)C2)cc(-n2cnc3ccc(CN4CCC[C@H](C)C4)cc3c2=O)n1` [Example 93] it was 7.30 to 7.70; in that of `C[C@H]1CCCN(Cc2cc(C(F)(F)F)c3cnn(-c4cccc([C@H](c5nncn5C)C5CCC5)c4)c(=O)c3c2)C1` [Example 19], 6.30 to 7.30; in that of `C[C@H]1CCCN(Cc2cc(C(F)(F)F)c3cnn(-c4cccc(C5(Cc6nncn6C)COC5)c4)c(=O)c3c2)C1` [Example 13], 6.00 to 6.30. As to `CNC(=O)c1cc(-n2cc3c(C(F)(F)F)cc(CN4CCC[C@H](C)C4)cc3n2)cc(C2(c3nncn3C)CC(C)C2)c1` (stereo partly shown) [Example 43], the negative logarithm of the IC50 (pIC50) is 6.30 to 7.30.

In the case of `CC1CC(c2cccc(-n3cc4c(C(F)(F)F)cc(CN5CCC[C@@](C)(O)C5)cc4n3)c2)(c2nncn2C)C1` (stereo partly shown) [Example 89], the pIC50 was 6.30 to 7.30.

The experiment is the same for the next values; noted with them: HTRF binding, CBL-B (GST-Tag), fluorescence labeled Cbl-b binding probe.
Regarding `C[C@H]1CCCN(Cc2cc(C(=O)Nc3cccc([C@]4(c5nncn5C)C[C@H](C)C4)c3)c(F)c(C(F)(F)F)c2)C1` [Example 29], the pIC50 is above 7.70. As to `C[C@H]1CCCN(Cc2ccc3ncn(-c4cc([C@]5(c6nncn6C)C[C@@H](C)C5)cc(C5CC5)n4)c(=O)c3c2)C1` [Example 96], the pIC50 was above 7.70.

In turn, `CC1CC(c2cccc(-c3nc4cc(CN5CCC[C@H](C)C5)cc(C(F)(F)F)c4s3)c2)(c2nncn2C)C1` (stereo partly drawn) [Example 4, (S)-2-(3-(3-methyl-1-(4-methyl-4H-1,2,4-triazol-3-yl)cyclobutyl)phenyl)-5-((3-methylpiperidin-1-yl)methyl)-7-(trifluoromethyl)benzo[d]thiazole] showed a pIC50 above 7.70. In turn, `C[C@@H]1CN(Cc2cc(C(F)(F)F)c3ncn(-c4cc([C@]5(c6nncn6C)C[C@@H](C)C5)cc(OCF)n4)c(=O)c3c2)CCC1F` (stereo partly shown) [Example 106] had a pIC50 above 7.70.

`C=Cc1cc([C@]2(c3nncn3C)C[C@@H](C)C2)cc(-n2cnc3ccc(CN4CCC[C@H](C)C4)cc3c2=O)n1` [Example 94] showed a pIC50 above 7.70. As for `C#C[C@H]1CCCN(Cc2cc(C(F)(F)F)c3cn(-c4cccc(C5(Cc6nncn6C)COC5)c4)nc3c2)C1` [Example 69], the negative-log IC50 (pIC50) is above 7.70. In turn, `C[C@H]1CCCN(Cc2ccc3ncn(-c4cc([C@]5(c6nncn6C(F)F)C[C@@H](C)C5)cc(OCF)n4)c(=O)c3c2)C1` [Example 124] gave a pIC50 above 7.70. `CC1CN(Cc2cc(C(F)(F)F)c3ncn(-c4cc([C@]5(c6nncn6C)C[C@@H](C)C5)cc(OCF)n4)c(=O)c3c2)CCC1(F)F` (stereo partly shown) [Example 109] gave a pIC50 above 7.70. The compound `CC(c1ccc2ncn(-c3cc([C@]4(c5nncn5C)C[C@@H](C)C4)cc(OCF)n3)c(=O)c2c1)N1CCC[C@H](C)C1` (stereo partly shown) [Example 95] showed a negative-log IC50 (pIC50) above 7.70. `C[C@H]1CCCN(Cc2cc(C(=O)Nc3cccc([C@]4(c5nncn5C)C[C@@H](C)C4)c3)c(F)c(C(F)(F)F)c2)C1` [Example 28]: the pIC50 was above 7.70. As for `CC1CC(c2cccc(-n3cnc4c(C(F)(F)F)c(CN5CCC[C@H](C)C5)[nH]c4c3=O)c2)(c2nncn2C)C1` (stereo partly shown) [Example 63], the pIC50 is above 7.70. Compound `C[C@H]1CCCN(Cc2cc(C(F)(F)F)c3cn(-c4cccc(C5(C(F)c6nncn6C)COC5)c4)nc3c2)C1` (stereo partly shown) [Example 57] showed a pIC50 above 7.70.

In turn, `C[C@H]1CCCN(Cc2cc(C(F)(F)F)c3cn(-c4cc(C5(Cc6nncn6C)COC5)cc5c4OCC5)nc3c2)C1` [Example 75] showed a pIC50 above 7.70. `CC1CC(c2cccc(-n3ncc4c(C(F)(F)F)cc(CN5CCC(F)(F)[C@@H](C)C5)cc4c3=O)c2)(c2nncn2C)C1` (stereo partly shown) [Example 15]: the pIC50 is below 6.00. `C[C@H]1CCCN(Cc2ccc3ncn(-c4cc([C@]5(c6nncn6C)C[C@@H](C)C5)cc(OCF)n4)c(=O)c3c2)C1` [Example 112] had a pIC50 above 7.70. In turn, `C[C@H]1CCCN(Cc2cc(C(F)(F)F)c3cnn(-c4cccc([C@@H](c5nncn5C)C5CCC5)c4)c(=O)c3c2)C1` [Example 18] showed a pIC50 below 6.00.

With `CC1CC(c2cccc(-n3cnc4c(C(F)(F)F)cc(CN5CCC[C@H](C)C5)cc4c3=O)c2)(c2nncn2C)C1` (stereo partly shown) [Example 84], the negative-log IC50 (pIC50) was above 7.70. On the same count and under the same terms, the result for `Cn1cnnc1C(F)C1(c2cccc(-n3cc4c(C(F)(F)F)cc(CN5CCC[C@H](C6CC6)C5)cc4n3)c2)COC1` (stereo partly shown) [Example 50] reads above 7.70; that for `CC1CC(c2cc(OCF)nc(-n3ncc4c(C(F)(F)F)cc(CN5CCC[C@H](C)C5)cc4c3=O)c2)(c2nncn2C)C1` (stereo partly shown) [Example 38], above 7.70; that for `C=C(F)c1cc([C@]2(c3nncn3C)C[C@@H](C)C2)cc(-n2cnc3c(C(F)(F)F)cc(CN4CCC[C@H](C)C4)cc3c2=O)n1` [Example 107], above 7.70. Consider `CC1CC(c2cc(C3CC3)nc(-n3cnc4c(C(F)(F)F)cc(CN5CCC[C@H](C)C5)cc4c3=O)c2)(c2nncn2C)C1` (stereo partly shown) [Example 47], for which the pIC50 was above 7.70. As for `C#CC1CC(c2cccc(-n3cc4c(C(F)(F)F)cc(CN5CCC[C@H](C)C5)cc4n3)c2)(c2nncn2C)C1` (stereo partly shown) [Example 32], the pIC50 was above 7.70.

For orientation: pIC50 means −log10 of the IC50, conventionally taken in molar units. Higher therefore signals a small IC50.
